# According to paper PMC7891648, “A simple novel approach for detecting blood–brain barrier permeability using GPCR internalization” (Neuropathology and Applied Neurobiology, 2020):
# What was measured:
# [1] = cited from earlier work
# Description: The Arc display several populations of neurons that are pivotal for regulating energy homoeostasis, food intake and cardiovascular functions. Because of this central role at the interface between the brain and the periphery, a few studies have hypothesized that the Arc could share common features with classical CVOs. […] We have therefore reinvestigated this subject using our approach. […] Membrane‐associated SST2 in Arc neurons intern ...
# [2] = target: T1, SST2 (Rattus norvegicus, UniProt P30680); assay: In vivo model 3: juvenile cerebral ischaemia, OCT extravasation detected by SST2 internalization; parameters: two sensory CVOs in which neurons natively express the SST2; from tissue; host or cells: brain of P14 rats (area postrema, OVLT, arcuate nucleus, cerebral cortex), in vivo; conditions: P14 rats, 2.5 mg/kg i.p., 45 mins
# Protocol: Ischaemia‐reperfusion. Ischaemia was induced in P14 rats as previously reported. See Supporting Information for further details.
# Cerebral ischaemia. Isoflurane-anaesthetized P14 rats were exposed to proximal left middle cerebral artery electrocoagulation (MCAo) combined with a transient (60 min) double occlusion of common carotid arteries (CCAo). Carotid blood-flow restoration was assessed by release of the carotid clips.
# [3] = Tolerability after acute OCT i.p. injection; type: in vivo; conditions: rat and mice models, 2.5 mg/kg i.p.
# [4] = target: T1, SST2; conditions: P14 rats, 2.5 mg/kg i.p., 45 mins
# Protocol: Adult mice and post‐natal day 14 (P14) male rats. […] Brains were dissected, post‐fixed in the same fixative overnight at 4°C, cryoprotected, frozen in liquid isopentane at −45°C and sectioned in the coronal plane at a thickness of 30 μm and collected in PBS.
# The SST2 receptor was immunolocalized on brain sections (in vivo models 1‐5), whole embryo sections (in vivo model 5) and DAOY cells (in vitro model). Brain sections were selected at the level of the circumventricular organs (in vivo model 1), at the level of the focused ultrasound‐mediated BBB opening (in vivo model 2), at the level of the ischaemia‐reperfusion lesions (in vivo model 3), at the level of the traumatic brain injury (in vivo model 4) and at the level of the caudal embryonic cortex (in vivo model 5). See Supporting Information for further details.
# [5] = system: Human Primary Brain Microvascular Endothelial Cell (hPBMEC) monolayers; assay: Fluorescein permeability of hPBMEC monolayers (tight junction functionality); type: in vitro ADME; conditions: hPBMEC monolayer, with 1 M mannitol treatment 30 min, versus basal
# Protocol: The hPBMECs were cultured as previously described [31]. […] Differentiated hPBMECs with the BBB phenotype (TEER> 1000 Ωxcm^2) were treated or not with 1 M mannitol in serum‐free culture medium for 30 min to temporarily open tight junctions. Then, mannitol solution was removed and replaced by culture medium. Tight junction opening was evaluated with the measurements of fluorescein permeability, a small hydrophilic compound known to cross the BBB via the paracellular route. […] The medium of the abluminal compartment was then collected during a 2‐hour period (n = 3 per condition).
# The experimentation was conducted in compliance with the French legislation, and the protocol was permitted by the French Ministry of Higher Education and Research (CODECOH DC-2014-2229). Brain capillaries were isolated using soft digestion of patient brain tissues and then seeded. Brain primary microvascular endothelial cells were shortly amplified and seeded on 12-well-type Transwell® (Corning, membrane area: 1.12 cm^2) with microporous membranes (pore size: 0.4 µm). Cells were cultured in EBM-2 medium (Lonza, Basel, Switzerland) supplemented with 20% serum and growth factors (Sigma-Aldrich, St. Louis, MO, USA). Transendothelial electrical resistance (TEER) was measured as an integrity marker and to assess cellular barrier tightness.
# [6] = target: T2, SST2 (Mus musculus, UniProt P30875); assay: In vivo model 2: focused ultrasound-mediated BBB disruption, extravasation detected by SST2 internalization or MRI; conditions: after microbubble sonication of the targeted area, i.v.
# T2 construct: The endogenous SST2 was immunolocalized using an extensively characterized rabbit monoclonal antibody; from tissue; host or cells: brain of adult C57Bl/6 mice, P7 OF1 mouse pups and C57Bl/6 embryos (E13.5-E18.5), in vivo
# Protocol: BBB disruption induced by magnetic resonance imaging (MRI)‐guided focused ultrasound (FUS) (MRgFUS) was performed as previously reported [28].
# Stereological measures of estimated volume in the in vivo model 2 was performed with the Volumest plug‐in [32] in the Fiji distribution of ImageJ [33]. Brightfield images of serial coronal sections separated by 180 μm were collected. The number of serial sections, the thickness of the sections, the sampling interval and pixel‐to‐μm scaling were entered into the Volumest plug‐in. Next, the cortical areas displaying BBB disruption detected by SST2 internalization were manually traced and the volume estimate was calculated in the Volumest plug‐in [32].
# Adult C57Bl/6 mice (n=3) were anaesthetized with isoflurane (1-2% at beginning, then 0.8% during MRI acquisition). The catheter was installed in the tail vein and the head was shaved with a depilatory cream. Mice were then installed on the MRgFUS system (Image Guided Therapy) and the transducer was placed on their head. MR contrast agent (MRCA) (Dotarem, Guerbet, France; 0.1 mL) was injected intravenously outside the MRI tunnel, before the baseline MRI acquisition. Mice were then removed from the MRI tunnel in order to inject the ultrasound contrast agent (UCA) (Sonovue, Bracco, Italy; 0.15 mL). […]
# [7] = cited from earlier work; remark: listed apart in the source
# T1 sequence (P30680 whole entry, the tested form may be a part): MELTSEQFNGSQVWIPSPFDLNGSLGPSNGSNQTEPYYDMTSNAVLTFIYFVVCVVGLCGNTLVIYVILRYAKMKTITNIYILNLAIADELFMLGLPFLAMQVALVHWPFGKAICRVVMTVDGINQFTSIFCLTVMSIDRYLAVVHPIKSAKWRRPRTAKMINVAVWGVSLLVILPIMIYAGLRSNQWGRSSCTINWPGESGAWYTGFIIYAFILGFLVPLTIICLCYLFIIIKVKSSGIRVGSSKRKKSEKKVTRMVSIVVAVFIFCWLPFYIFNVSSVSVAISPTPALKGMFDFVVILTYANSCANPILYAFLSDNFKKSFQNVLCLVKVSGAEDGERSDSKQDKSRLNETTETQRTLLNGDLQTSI
# T2 sequence (P30875 whole entry): as the sequence (P30680 whole entry, the tested form may be a part) above, with L3M, T4S, F8L, I15V, P16S, G168C, A335T counted along it
molecule,measurement,setting,value
Cc1cc(-c2ccc(/N=N/c3ccc4c(S(=O)(=O)O)cc(S(=O)(=O)O)c(N)c4c3O)c(C)c2)ccc1/N=N/c1ccc2c(S(=O)(=O)O)cc(S(=O)(=O)O)c(N)c2c1O [Evans blue],dye extravasation in the Arc,[1],extravasated only in the Arc of 24‐hour fasted mice but not in control‐fed mice
"C[C@@H](O)[C@@H]1NC(=O)[C@H](CCCCN)NC(=O)[C@@H](Cc2c[nH]c3ccccc23)NC(=O)[C@H](Cc2ccccc2)NC(=O)[C@@H](NC(=O)[C@H](N)Cc2ccccc2)CSSC[C@@H](C(=O)N[C@H](CO)[C@@H](C)O)NC1=O [OCT, octreotide]",SST2 internalization around cortical lesion,[2]; 6 h after ischaemia,few neurons with internalized receptors were visible
same,SST2 internalization around cortical lesion,[2]; 12 h after ischaemia,a larger number of neurons with internalized SST2 are localized in a narrow band
same,SST2 internalization around cortical lesion,[2]; 24 h after ischaemia,induced large areas of SST2 internalization around the core of the cortical lesion
same,physiological or behavioural parameters after acute i.p. injection until perfusion,[3],did not observe any gross changes in physiological or behavioural parameters
same,SST2 immunoreactivity in AP and OVLT (permeable capillaries),[4],immunoreactivity was confined to intracytoplasmic granules near the nucleus and in proximal dendrites
same,SST2 in arcuate nucleus neurons,[4]; naïve animals,internalized and clustered in TGN‐like structures
O=C1OC2(c3ccc(O)cc3Oc3cc(O)ccc32)c2ccccc21 [fluorescein],increase of fluorescein permeability,[5],600 ± 25%
CNC[C@H](O)[C@@H](O)[C@H](O)[C@H](O)CO.O=C([O-])CN1CCN(CC(=O)[O-])CCN(CC(=O)O)CCN(CC(=O)[O-])CC1.[Gd+3] [gadolinium],Gd extravasation on T1-weighted MRI,[6],Extravasation was evident from the cerebral cortex to deep brain structures
somatostatin,half-life in the circulation,[7],2 to 3 min
